Ki data for 18 molecules are collected here from ChEMBL document CHEMBL1128607, “Structure-based design of novel HIV protease inhibitors: carboxamide-containing 4-hydroxycoumarins and 4-hydroxy-2-pyrones as potent nonpeptidic inhibitors” (J Med Chem, 1995).

Structures are written as SMILES.

This test deals with Human immunodeficiency virus type 1 protease (Human immunodeficiency virus 1, UniProt Q72874). Put plainly: Ability to inhibit HIV protease purified and refolded from Escherichia coli inclusion bodies.
As to `CCC(Cc1ccccc1)c1cc(O)c(C(c2cccc(NC(=O)Cc3ccncc3)c2)C2CC2)c(=O)o1` (stereo not drawn), the affinity, expressed as Ki, was 44 nM. To `CCC(Cc1ccccc1)c1cc(O)c(C(c2cccc(NC(=O)[C@H](Cc3c[nH]cn3)NC(=O)OC(C)(C)C)c2)C2CC2)c(=O)o1` (stereo partly drawn) belongs 4 nM; to `CCC(c1cccc(C(=O)N[C@H](C(=O)NCc2ccccn2)C(C)CC)c1)c1c(O)oc2ccccc2c1=O` (stereo partly drawn), 400 nM; to `CCC(c1cccc(C(=O)NCc2nc3ccccc3[nH]2)c1)c1c(O)oc2ccccc2c1=O` (stereo not drawn), 4400 nM. The same measure for `CCC(c1cccc(NC(=O)CCNC(=O)OC(C)(C)C)c1)c1c(O)oc2cc(OC)ccc2c1=O` (stereo not drawn): 170 nM; for `CC(C)(C)OC(=O)NCCC(=O)Nc1cccc(C(c2c(O)oc3ccccc3c2=O)C2CC2)c1` (stereo not drawn): 86 nM; for `COc1ccc2c(O)c(C(c3ccccc3)C3CC3)c(=O)oc2c1` (stereo not drawn): 170 nM. The same measure for `CCC(Cc1ccccc1)c1cc(O)c(C(c2cccc(NC(=O)[C@H](C)NC(=O)OC(C)(C)C)c2)C2CC2)c(=O)o1` (stereo partly drawn): 15 nM. For the molecule `CCC(Cc1ccccc1)c1cc(O)c(C(c2cccc(NC(=O)[C@H](Cc3cn(S(=O)(=O)c4ccc(C)cc4)cn3)NC(=O)OC(C)(C)C)c2)C2CC2)c(=O)o1` (stereo partly drawn), the Ki (in general, a dissociation constant, usually derived from enzyme kinetics or from competition with a known ligand) was determined as 19 nM. The same measure for `O=c1oc2ccccc2c(O)c1C(c1ccccc1)C1CC1` (stereo not drawn): 350 nM; for `CCC(c1cccc(NC(=O)CCNC(=O)OC(C)(C)C)c1)c1c(O)c2ccccc2oc1=O` (stereo not drawn): 280 nM. For `CCC(c1cccc(NC(=O)[C@H](C)NC(=O)OC(C)(C)C)c1)c1c(O)c2ccccc2oc1=O` (stereo partly drawn), affinity was put at a Ki of 170 nM.

As to `CCC(c1cccc(NC(=O)CCCNC(=O)OC(C)(C)C)c1)c1c(O)c2ccccc2oc1=O` (stereo not drawn), the Ki was 1600 nM. `CCC(c1ccccc1)c1c(O)c2ccc(OC)cc2oc1=O` (stereo not drawn) had a Ki of 560 nM. The same measure for `CCC(c1cccc(NC(=O)[C@@H]2CCCN2C(=O)OC(C)(C)C)c1)c1c(O)c2ccccc2oc1=O` (stereo partly drawn): 3600 nM; for `CCC(c1cccc(NC(=O)CCn2ccc3ccccc32)c1)c1c(O)c2ccccc2oc1=O` (stereo not drawn): 110 nM. The same measure for `CCC(c1cccc(NC(=O)CNC(=O)OC(C)(C)C)c1)c1c(O)c2ccccc2oc1=O` (stereo not drawn): 160 nM; for `COc1ccc2c(O)c(C(c3cccc(NC(=O)CCNC(=O)OC(C)(C)C)c3)C3CC3)c(=O)oc2c1` (stereo not drawn): 28 nM.
